Experiments:
[1] = molecular target: T1, human full length PIK3KA H1047R mutant (p110α/p85α complex) (Homo sapiens, UniProt P42336, H1047R); assay: PI3K-Alpha Kinase (PIK3CA) biochemical activity, H1047R mutant (ADP-Glo); details: Soy PI lipid substrate, 20 uM ATP
T1 construct: Recombinant, catalytically active human full length PIK3KA Wild-type and H1047R mutant were purchased; 6xHis (N); purchased EMD Millipore Sigma 14-792M
Source text: (§1) PI3K-Alpha Kinase (PIK3CA) Activity, Wild-Type and H1047R Mutant and Determining IC50 Values for Inhibitors
(§2) Recombinant, catalytically active human full length PIK3KA Wild-type and H1047R mutant were purchased as 1:1 complex of N-terminal 6×his tagged p110α (catalytic) and untagged p85α, (regulatory subunit) from EMD Millipore Sigma (cat. no. 14-602M and 14-792M, respectively). PIP2diC8 (Avanti Polar Lipids Inc., cat. no. 850185) or Soy PI (Avanti Polar Lipids Inc., cat. No. 840044P) was used as lipid substrate. PIP2diC8 or PI lyophilized powder was dissolved in milliQ water to a concentration of 1 mM just before use. 10 mM stock compounds in DMSO were serially diluted 1:3 to generate a 10-point curve and plated using an acoustic liquid handler system (Echo 550 series instrument, Labcyte). A 10× intermediate compound plate (200 uM starting compound concentration and 10% DMSO) was prepared before starting the reaction. A typical reaction mixture (50 uL) comprised 40 mM HEPES buffer, pH 7.4, 25 mM MgCl2, 0.01% v/v triton-X-100, 1% v/v DMSO, 20 mM NaCl, 1-5 nM WT or H1047R PI3K protein, 20 uM ATP, and 50 uM PIP2diC8 or Soy PI. 1% DMSO buffer alone without test compound was employed as MAX control (full activity in the absence of any inhibitor), and no enzyme control was used to determine the level of background Adenosine 5′-diphosphate (ADP) (MIN control). First, Wild-type (WT) and H1047R mutant protein in kinase buffer with all components except ATP were incubated with or without compound at 27° C. for 1 h. After the pre-incubation, the reaction was initiated by the addition of […] (20 uM final concentration). The reaction was allowed to proceed until about 10% conversion of ATP (2 uM ADP) at 27° C. After that time, 5 uL of reaction was mixed with 5 uL of ADP-Kinase Glo Reagent (ADP-Glo Kinase assay kit, Promega cat. no. V9102) supplemented with MgCl2 10 mM to stop the reaction and deplete the remaining ATP for 40 min at room temperature. Then, 10 uL of Kinase Detection Reagent (ADP-Glo Kinase assay kit, Promega cat. no. V9102) was added to simultaneously convert ADP to ATP and allow the newly synthesized ATP to be measured using a luciferase/luciferin reaction. After 30 min at room temperature the light generated was measured using a luminometer (EnVision plate reader, Perkin Elmer). Process data through Genedata-Screener tool. Relative IC50 values are determined using luminescence units by calculating percent inhibition with respect to on-plate “MIN” and “MAX” controls. Data was analyzed using a 4-parameter nonlinear logistic equation (four-parameter logistic concentration-response curve):
(§3) Y=bot+[(top−bot)/1+(x/IC50)slope]
(§4) where Y=% inhibition, X=concentration yielding y % inhibition, Bottom=minimum value of y attained by curve, Top=maximum value of y attained by curve and Slope=steepness of curve at IC50.
(§5) % Inh=[(median Max−x/median Max−median Min)]·100
(§6) IC50: concentration of compound that reduces a given response (ligand binding, enzyme response) by 50%. IC50 relative: concentration giving half the compound's maximum response.
(§7) For IC50 values shown in Table A, “A” means IC50<0.5 μM; “B” means IC50 ranging between 0.5 μM and 1.0 μM; “C” means IC50 ranging between 1 μM and 5 μM; “D” means IC50 ranging between 5 μM and 10 μM; “E” means IC50>10 μM.

[2] = molecular target: T2, human full length PIK3KA Wild-type (p110α/p85α complex) (Homo sapiens, UniProt P42336); assay: PI3K-Alpha Kinase (PIK3CA) biochemical activity, wild-type (ADP-Glo); details: Soy PI lipid substrate, 20 uM ATP
T2 construct: Recombinant, catalytically active human full length PIK3KA Wild-type and H1047R mutant were purchased; 6xHis (N); purchased EMD Millipore Sigma 14-602M
Source text: as §1, §2, §3, §4, §5, §6, §7

T1 sequence (P42336 whole entry H1047R): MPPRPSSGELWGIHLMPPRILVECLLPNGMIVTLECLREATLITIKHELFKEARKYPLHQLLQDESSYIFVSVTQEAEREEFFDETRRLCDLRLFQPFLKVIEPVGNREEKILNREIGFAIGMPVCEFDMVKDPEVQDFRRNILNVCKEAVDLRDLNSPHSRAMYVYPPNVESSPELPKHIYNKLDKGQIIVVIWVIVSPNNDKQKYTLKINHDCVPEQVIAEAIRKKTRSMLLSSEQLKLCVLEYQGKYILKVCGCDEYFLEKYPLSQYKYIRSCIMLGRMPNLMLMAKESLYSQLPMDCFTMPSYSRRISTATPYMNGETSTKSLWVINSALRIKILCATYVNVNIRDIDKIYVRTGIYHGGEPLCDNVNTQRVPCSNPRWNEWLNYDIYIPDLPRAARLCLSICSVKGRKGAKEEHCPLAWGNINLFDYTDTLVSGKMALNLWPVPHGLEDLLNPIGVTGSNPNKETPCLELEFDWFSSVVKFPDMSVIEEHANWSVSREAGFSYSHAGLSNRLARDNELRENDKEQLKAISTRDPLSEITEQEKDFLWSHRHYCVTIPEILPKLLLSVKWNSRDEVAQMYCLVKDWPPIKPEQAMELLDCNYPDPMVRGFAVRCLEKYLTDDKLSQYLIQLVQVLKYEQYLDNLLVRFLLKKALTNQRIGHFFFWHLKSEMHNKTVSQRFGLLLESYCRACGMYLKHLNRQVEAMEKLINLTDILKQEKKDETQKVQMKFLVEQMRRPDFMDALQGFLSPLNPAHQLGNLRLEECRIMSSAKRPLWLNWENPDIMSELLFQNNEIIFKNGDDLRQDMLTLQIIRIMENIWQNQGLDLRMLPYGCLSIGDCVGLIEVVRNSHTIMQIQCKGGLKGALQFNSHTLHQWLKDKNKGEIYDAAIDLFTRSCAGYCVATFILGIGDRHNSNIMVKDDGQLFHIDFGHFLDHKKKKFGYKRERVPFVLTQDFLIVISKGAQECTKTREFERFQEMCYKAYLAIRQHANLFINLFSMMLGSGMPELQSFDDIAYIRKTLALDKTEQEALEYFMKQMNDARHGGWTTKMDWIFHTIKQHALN
T1 sequence (P27986 whole entry partner): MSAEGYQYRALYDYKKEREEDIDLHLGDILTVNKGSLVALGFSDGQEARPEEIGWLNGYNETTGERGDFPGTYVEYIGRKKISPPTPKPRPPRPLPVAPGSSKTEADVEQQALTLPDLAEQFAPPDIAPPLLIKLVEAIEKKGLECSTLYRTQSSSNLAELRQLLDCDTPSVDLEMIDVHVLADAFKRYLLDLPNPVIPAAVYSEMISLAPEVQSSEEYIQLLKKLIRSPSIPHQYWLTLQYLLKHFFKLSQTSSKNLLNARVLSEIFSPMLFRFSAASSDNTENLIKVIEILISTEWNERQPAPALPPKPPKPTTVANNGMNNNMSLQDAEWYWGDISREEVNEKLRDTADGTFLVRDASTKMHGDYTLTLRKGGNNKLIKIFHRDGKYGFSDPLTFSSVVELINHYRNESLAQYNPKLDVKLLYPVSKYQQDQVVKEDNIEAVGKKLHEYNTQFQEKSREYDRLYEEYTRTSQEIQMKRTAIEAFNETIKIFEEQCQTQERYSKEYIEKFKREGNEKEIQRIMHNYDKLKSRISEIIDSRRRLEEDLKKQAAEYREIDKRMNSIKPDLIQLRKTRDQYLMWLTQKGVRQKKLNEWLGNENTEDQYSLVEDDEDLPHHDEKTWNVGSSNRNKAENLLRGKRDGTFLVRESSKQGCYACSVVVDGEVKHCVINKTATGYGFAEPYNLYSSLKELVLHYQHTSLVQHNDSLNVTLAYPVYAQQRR

Row | IC50 [1] [µM] | IC50 [2] [µM] | SMILES
1 | < 0.5 | > 10 | Cc1cc(C(C)Nc2ccccc2C(=O)O)c2oc(-c3nnc(-c4ccc(C#N)cc4)o3)cc(=O)c2c1 (single isomer, unassigned; isomer 2) [Example 90, 2-[1-[2-[5-(4-Cyanophenyl)-1,3,4-oxadiazol-2-yl]-6-methyl-4-oxo-chromen-8-yl]ethylamino]benzoic acid, Isomer 2]
2 | < 0.5 | > 10 | Cc1cc(C(C)Nc2ccccc2C(=O)O)c2oc(-c3cnc(OC(C)C)nc3)cc(=O)c2c1 (centres unmarked) [Example 6, 2-[1-[2-(2-Isopropoxypyrimidin-5-yl)-6-methyl-4-oxo-chromen-8-yl]ethylamino]benzoic acid 2,2,2-trifluoroacetic acid]
3 | < 0.5 | 5 to 10 | Cc1cc(C(C)Nc2ccccc2C(=O)O)c2oc(-c3cnn(-c4cccnc4)c3)cc(=O)c2c1 (centres unmarked) [Example 48, 2-[1-[6-Methyl-4-oxo-2-[1-(3-pyridyl)pyrazol-4-yl]chromen-8-yl]ethylamino]benzoic acid 2,2,2-trifluoroacetic acid]
4 | < 0.5 | 1 to 5 | COc1cccc(-n2cc(-c3cc(=O)c4cc(C)cc(C(C)Nc5ccccc5C(=O)O)c4o3)cn2)c1 (single isomer, unassigned) [Example 53, 2-[1-[2-[1-(3-Methoxyphenyl)pyrazol-4-yl]-6-methyl-4-oxo-chromen-8-yl]ethylamino]benzoic acid, Isomer 2,2,2,2-trifluoroacetic acid]
5 | < 0.5 | > 10 | Cc1cc(C(C)Nc2ccccc2C(=O)O)c2oc(-c3ncccn3)cc(=O)c2c1 (single isomer, unassigned; isomer 2) [Example 3, 2-[1-(6-Methyl-4-oxo-2-pyrimidin-2-yl-chromen-8-yl)ethylamino]benzoic acid, Isomer 2]
6 | < 0.5 | 5 to 10 | Cc1cc(C(C)Nc2ccccc2C(=O)O)c2oc(-c3cn(-c4ccc(C#N)cc4)cn3)cc(=O)c2c1 (single isomer, unassigned) [Example 103, 2-[1-[2-[1-(4-Cyanophenyl)imidazol-4-yl]-6-methyl-4-oxo-chromen-8-yl]ethylamino]benzoic acid, Isomer 2,2,2,2-trifluoroacetic acid]
7 | < 0.5 | 1 to 5 | Cc1cc(C(C)Nc2ccccc2C(=O)O)c2oc(-c3ncccn3)c(C)c(=O)c2c1 (single isomer, unassigned; isomer 1) [Example 34, 2-[1-(3,6-Dimethyl-4-oxo-2-pyrimidin-2-yl-chromen-8-yl)ethylamino]benzoic acid, Isomer 1]
8 | 0.5 to 1 | > 10 | Cc1cc(C(C)Nc2ccccc2C(=O)O)c2oc(-c3cnn(-c4ccc5c(c4)OC(F)(F)O5)c3)cc(=O)c2c1 (single isomer, unassigned) [Example 91, 2-[1-[2-[1-(2,2-Difluoro-1,3-benzodioxol-5-yl)pyrazol-4-yl]-6-methyl-4-oxo-chromen-8-yl]ethylamino]benzoic acid, Isomer 2,2,2,2-trifluoroacetic acid]
9 | 0.5 to 1 | 5 to 10 | Cc1cc(C(C)Nc2ccccc2C(=O)O)c2oc(-c3cnc(C#CC(C)(C)O)nc3)cc(=O)c2c1 (single isomer, unassigned) [Example 102, 2-[1-[2-[2-(3-Hydroxy-3-methyl-but-1-ynyl)pyrimidin-5-yl]-6-methyl-4-oxo-chromen-8-yl]ethylamino]benzoic acid, Isomer 2,2,2,2-trifluoroacetic acid]
10 | < 0.5 | 5 to 10 | Cc1cc(C(C)Nc2ccccc2C(=O)O)c2oc(-c3ccc(C(F)(F)F)nc3)cc(=O)c2c1 (centres unmarked) [Example 8, 2-[1-[6-Methyl-4-oxo-2-[6-(trifluoromethyl)-3-pyridyl]chromen-8-yl]ethylamino]benzoic acid 2,2,2-trifluoroacetic acid]
11 | < 0.5 | > 10 | Cc1cc(C(C)Nc2ccccc2C(=O)O)c2oc(-c3ccc(S(C)(=O)=O)nc3)cc(=O)c2c1 (centres unmarked) [Example 7, 2-[1-[6-Methyl-2-(6-methylsulfonyl-3-pyridyl)-4-oxo-chromen-8-yl]ethylamino]benzoic acid 2,2,2-trifluoroacetic acid]
12 | < 0.5 | 5 to 10 | Cc1cc(C(C)Nc2ccccc2C(=O)O)c2oc(-c3cnn(-c4ccc(C(F)(F)F)cc4)c3)cc(=O)c2c1 (single isomer, unassigned) [Example 87, 2-[1-[6-Methyl-4-oxo-2-[1-[4-(trifluoromethyl)phenyl]pyrazol-4-yl]chromen-8-yl]ethylamino]benzoic acid, Isomer 2,2,2,2-trifluoroacetic acid]
13 | 0.5 to 1 | > 10 | COc1ncc(-n2cc(-c3cc(=O)c4cc(C)cc(C(C)Nc5ccccc5C(=O)O)c4o3)cn2)cn1 (single isomer, unassigned) [Example 105, 2-[1-[2-[1-(2-Methoxypyrimidin-5-yl)pyrazol-4-yl]-6-methyl-4-oxo-chromen-8-yl]ethylamino]benzoic acid, Isomer 2,2,2,2-trifluoroacetic acid]
14 | 0.5 to 1 | 5 to 10 | COc1ccnc(-c2cc(=O)c3cc(C)cc(C(C)Nc4ccccc4C(=O)O)c3o2)c1 (single isomer, unassigned) [Example 43, 2-[1-[2-(4-Methoxy-2-pyridyl)-6-methyl-4-oxo-chromen-8-yl]ethylamino]benzoic acid, Isomer 2,2,2,2-trifluoroacetic acid]
15 | < 0.5 | 0.5 to 1 | Cc1cc(C(C)Nc2ccccc2C(=O)O)c2oc(-c3cccc(C(F)F)n3)c(C)c(=O)c2c1 (single isomer, unassigned) [Example 77, 2-[1-[2-[6-(Difluoromethyl)-2-pyridyl]-3,6-dimethyl-4-oxo-chromen-8-yl]ethylamino]benzoic acid, Isomer 1,2,2,2-trifluoroacetic acid]
16 | < 0.5 | > 10 | Cc1cc(C(C)Nc2ccccc2C(=O)O)c2oc(-n3nccn3)cc(=O)c2c1 (single isomer, unassigned) [Example 57, 2-[1-[6-Methyl-4-oxo-2-(triazol-2-yl)chromen-8-yl]ethylamino]benzoic acid, Isomer 2,2,2,2-trifluoroacetic acid]
17 | < 0.5 | 5 to 10 | COc1ccc(-n2cc(-c3cc(=O)c4cc(C)cc(C(C)Nc5ccccc5C(=O)O)c4o3)cn2)cc1F (single isomer, unassigned) [Example 92, 2-[1-[2-[1-(3-Fluoro-4-methoxy-phenyl)pyrazol-4-yl]-6-methyl-4-oxo-chromen-8-yl]ethylamino]benzoic acid, Isomer 2,2,2,2-trifluoroacetic acid]
18 | 0.5 to 1 | 1 to 5 | Cc1cc(C(C)Nc2ccccc2C(=O)O)c2oc(-c3cnn(-c4ccccn4)c3)cc(=O)c2c1 (single isomer, unassigned) [Example 108, 2-[1-[6-Methyl-4-oxo-2-[1-(2-pyridyl)pyrazol-4-yl]chromen-8-yl]ethylamino]benzoic acid, Isomer 2,2,2,2-trifluoroacetic acid]
19 | < 0.5 | 1 to 5 | Cc1cc(C(C)Nc2ccccc2C(=O)O)c2oc(-c3cnn(-c4ccc(S(C)(=O)=O)cc4)c3)cc(=O)c2c1 (single isomer, unassigned) [Example 88, 2-[1-[6-Methyl-2-[1-(4-methylsulfonylphenyl)pyrazol-4-yl]-4-oxo-chromen-8-yl]ethylamino]benzoic acid, Isomer 2,2,2,2-trifluoroacetic acid]
